Like-named read-outs stand apart in the source and are kept apart here.
What was measured:
[1] = biological target: full-length human HPK1 (MAP4K1) (Homo sapiens (Human), UniProt Q92918); experiment: HPK1 Kinase Assay (Biochemical Assay), ADP-Glo; conditions: GST-HPK1 3.2 nM, 10 μM ATP, MBP substrate, read-out: HPK1 enzymatic IC50
In short: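 GST-tagged full-length human HPK1 was expressed in Sf21 cells and used at 3.2 nM in 50 mM HEPES pH 7.5, 10 mM MgCl2, 2 mM DTT, 12.5 mM O-glycerophosphate, 0.01% BSA and 0.02% Brij-35. It was preincubated 15 min with 10-point compound dilutions, and the reaction was started with a start mix of 10 μM ATP and 3.235 μM MBP. After 120 min, ADP was measured by ADP-Glo luminescence and IC50 derived.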

[2] = biological target: HPK1 (SLP76 phosphorylation at Ser376 in Jurkat and EL-4 cells) (Homo sapiens, UniProt Q92918); type: cell-based
Chain of HPK1 (SLP76 phosphorylation at Ser376 in Jurkat and EL-4 cells) (Q92918 whole entry, looked up): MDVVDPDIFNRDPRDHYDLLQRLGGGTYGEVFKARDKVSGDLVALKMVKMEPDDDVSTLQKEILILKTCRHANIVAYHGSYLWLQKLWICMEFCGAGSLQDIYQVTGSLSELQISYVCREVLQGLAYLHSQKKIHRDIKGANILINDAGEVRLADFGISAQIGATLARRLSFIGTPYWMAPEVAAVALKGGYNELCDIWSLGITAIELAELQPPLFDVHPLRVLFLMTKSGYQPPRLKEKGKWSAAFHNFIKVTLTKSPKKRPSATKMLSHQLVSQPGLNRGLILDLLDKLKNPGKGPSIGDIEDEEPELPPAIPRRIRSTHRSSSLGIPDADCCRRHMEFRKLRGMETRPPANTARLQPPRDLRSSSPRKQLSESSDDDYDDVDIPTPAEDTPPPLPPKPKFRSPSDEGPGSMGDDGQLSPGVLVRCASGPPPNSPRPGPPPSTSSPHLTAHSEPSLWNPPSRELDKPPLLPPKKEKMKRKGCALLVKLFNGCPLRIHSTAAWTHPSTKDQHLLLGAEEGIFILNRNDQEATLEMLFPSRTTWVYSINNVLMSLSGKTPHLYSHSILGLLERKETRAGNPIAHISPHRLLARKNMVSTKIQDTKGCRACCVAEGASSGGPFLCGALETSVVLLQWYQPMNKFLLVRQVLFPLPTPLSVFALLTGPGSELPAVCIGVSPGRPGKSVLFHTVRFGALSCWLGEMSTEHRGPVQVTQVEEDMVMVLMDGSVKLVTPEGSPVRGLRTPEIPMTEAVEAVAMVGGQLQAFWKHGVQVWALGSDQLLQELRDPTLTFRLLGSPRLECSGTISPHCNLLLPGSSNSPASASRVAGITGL
Method: Cellular Assay—Phospho-SLP-76 (Ser376).
Inhibition of HPK1 enzymatic activity in cells was determined by detection of SLP76 phosphorylation at Ser376 residue in lysate from Jurkat (human) and EL-4 (mouse) cells. Jurkat and EL-4 cells express both HPK1 and SLP76 naturally. All cells were cultured in RPMI 1640 media containing 10% heat inactivated fetal bovine serum (FBS) and 1×Penicillin-Streptomycin. In either Jurkat or El-4 assay, cells were pre-incubated with test compounds prior to T cell stimulation by respective αCD3/αCD28 Dynabeads™. For detection, plates were read on the Envision and percent inhibition and IC50 were determined by Smart fit in Genedata Analyzer.
For Jurkat cells: 35 μL cell suspension were dispensed at a density of 30,000 cells/well in 384-well plates containing HBSS (Gibco, 14025076)+0.1% BSA). 10-point logarithmic serial dilution of test compounds in DMSO were prepared by a Hamilton automated liquid handling robot and 35 nL was transferred into each well by an Echo liquid handler. After 60 min. pre-incubation, the cells were stimulated by adding 5 μL human T activator αCD3/αCD28 Dynabeads™ (Gibco, 11132D) at 1.2×107 beads/mL for 15 minutes at 37° C. Detection of Ser376 phosphorylation status was accomplished by first adding 10 μL of 5×AlphaLISA lysis buffer (Perkin Elmer, ALSU-PSLP-A500) to each well of the cell plate using a Multidrop Combi (5840300), followed by 20 minutes shaking. 10 μL cell lysate from each treatment were then transferred to a white 384-well plate (Corning 3572) and incubated with AlphaLISA acceptor beads for one hour (AlphaLISA SureFire Ultra p-SLP76(Ser376), Perkin Elmer, ALSU-PSLP-A500), and donor beads for additional 2 hours at room temperature in the dark.
For EL-4.IL2 assay, 50 μL cell suspension at 2×10^6 cells/mL in HBSS were first dispensed into 384-well plates and then 50 nL serial dilutions of test compounds were spotted to each well by an Echo liquid handler. After 60 min. incubation at 37° C., cells were stimulated by adding 5 μL mouse T cell activator αCD3/αCD28 Dynabeads™ (ThermFisher Scientific, 11452D) for 30 minutes at 37° C. After a brief spin and subsequent supernatant discarded, 12.5 μL of Cisbio lysis buffer were added to each well and plates were shaken for 30 min at 450 RPM. For detection, 4 μL prepared HTRF antibody mixture (Cisbio, 63ADK000U) in detection buffer were mixed with 16 μl of cell lysate and plates were incubated at room temperature for 19 hours prior to EnVision reading.

[3] = αCD3/αCD28 Dynabeads stimulated cells, pSLP76 (Ser376) detection; read-out: HPK1 pSLP76 IC50
[4] = read-out: HPK1 pSLP76 IC50; αCD3/αCD28 Dynabeads stimulated cells, pSLP76 (Ser376) detection

Chain of full-length human HPK1 (MAP4K1) (Q92918 whole entry): as the sequence (Q92918 whole entry, looked up) above

Row | SMILES | IC50 [1] | IC50 [2, 3] | IC50 [2, 4]
1 | Cc1cc(Nc2ncc3c(n2)CN(c2cnc4c(c2C)NCCO4)CC3)cnc1NCCN1CCOCC1 [Example 36, 3-methyl-N5-(7-{8-methyl-1H,2H,3H-pyrido[2,3-b][1,4]oxazin-7-yl}-5H,6H,7H,8H-pyrido[3,4-d]pyrimidin-2-yl)-N2-[2-(morpholin-4-yl)ethyl]pyridine-2,5-diamine] | < 100 nM | 500 to 1000 nM | –
2 | CN1CCc2cc(Nc3cc4c(cn3)CCN(c3cnc5c(c3Cl)NCCO5)C4)nn2CC1=O [Example 37, 2-[(6-{8-chloro-1H,2H,3H-pyrido[2,3-b][1,4]oxazin-7-yl}-5,6,7,8-tetrahydro-2,6-naphthyridin-3-yl)amino]-6-methyl-4H,5H,6H,7H,8H-pyrazolo[1,5-d][1,4]diazepin-7-one] | < 100 nM | 500 to 1000 nM | –
3 | Cc1cc(Nc2ncc3c(n2)CN(c2cnc4c(c2C)NCCO4)CC3)ccc1C(=O)N1CC(N(C)C)C1 [Example 38, N,N-dimethyl-1-{2-methyl-4-[(7-{8-methyl-1H,2H,3H-pyrido[2,3-b][1,4]oxazin-7-yl}-5H,6H,7H,8H-pyrido[3,4-d]pyrimidin-2yl)amino]benzoyl}azetidin-3-amin] | < 100 nM | > 1000 nM | –
4 | Cc1cc(Nc2ncc3c(n2)CN(c2cnc4c(c2C)NCCO4)CC3)ccc1C(=O)NCCN1CCOCC1 [Example 39, 2-methyl-4-[(7-{8-methyl-1H,2H,3H-pyrido[2,3-b]oxazin-7-yl}-5H,6H,7H,8H-pyrido[3,4-d]pyrimidin-2-yl)amino]-N-[2-(morpholin-4-yl)ethyl] benzamide] | < 100 nM | < 500 nM | –
5 | Cc1c(N2CCc3cnc(Nc4ccc(CS(=O)(=O)C5CC5)nc4)nc3C2)cnc2c1NCCO2 [Example 40, 6-[(cyclopropanesulfonyl)methyl]-N-(7-{8-methyl-1H,2H,3H-pyrido[2,3-b][1,4]oxazin-7-yl}-5H,6H,7H,8H-pyrido[3,4-d]pyrimidin-2-yl) pyridin-3-amine] | < 100 nM | < 500 nM | –
6 | Cc1c(N2CCc3cnc(Nc4ccc(CS(=O)(=O)CC5(C)COC5)cc4)nc3C2)cnc2c1NCCO2 [Example 41, 7-{8-methyl-1H,2H,3H-pyrido[2,3-b][1,4]oxazin-7-yl}-N-(4-{[(3-methyloxetan-3-yl)methanesulfonyl]methyl}phenyl)-5H,6H,7H,8H-pyrido[3,4-d]pyrimidin-2-amine] | < 100 nM | < 500 nM | –
7 | Cc1c(N2CCc3cnc(Nc4ccc(C5(O)CCN(C)CC5)cc4)cc3C2)cnc2c1NCCO2 [Example 52, 1-methyl-4-(4-((6-(8-methyl-2,3-dihydro-1H-pyrido[2,3-b][1,4]oxazin-7-yl)-5,6,7,8-tetrahydro-2,6-naphthyridin-3-yl)amino)phenyl)piperidin-4-ol] | < 100 nM | 500 to 1000 nM | –
8 | Cc1c(N2CCc3cnc(Nc4ccc(N5CCN(C)CC5)cc4)nc3C2)cnc2c1NCCO2 [Example 55, 7-(8-methyl-2,3-dihydro-1H-pyrido[2,3-b][1,4]oxazin-7-yl)-N-(4-(4-methylpiperazin-1-yl)phenyl)-5,6,7,8-tetrahydropyrido[3,4-d]pyrimidin-2-amine] | < 100 nM | – | 500 to 1000 nM
9 | Cc1c(N2CCc3cnc(Nc4ccc(NC(=O)CN(C)C)nc4)nc3C2)cnc2c1NCCO2 [Example 56, 2-(dimethylamino)-N-(5-((7-(8-methyl-2,3-dihydro-1H-pyrido[2,3-b][1,4]oxazin-7-yl)-5,6,7,8-tetrahydropyrido[3,4-d]pyrimidin-2-yl)amino)pyridin-2-yl)acetamide] | < 100 nM | – | < 500 nM

More lines, main results first:

Row | IC50 [1] | IC50 [2, 3] | SMILES | IC50 [2, 4]
10 | < 100 nM | < 500 nM | Cc1c(N2CCc3cnc(Nc4ccc(C(=O)N5CC[C@@H](N(C)C)C5)cc4)nc3C2)cnc2c1NCCO2 [Example 42, (3R)—N,N-dimethyl-1-{4-[(7-{8-methyl-1H,2H,3H-pyrido[2,3-b][1,4]oxazin-7-yl} 5H,6H,7H,8H-pyrido[3,4-d]pyrimidin-2-yl)amino]benzoyl}pyrrolidin-3-amine] | –
11 | < 100 nM | < 500 nM | COCCNC(=O)c1ccc(Nc2ncc3c(n2)CN(c2cnc4c(c2C)NCCO4)CC3)cc1 [Example 44, N-(2-methoxyethyl)-4-[(7-{8-methyl-1H,2H,3H-pyrido[2,3-b][1,4]oxazin-7-yl}-5H,6H,7H,8H-pyrido[3,4-d]pyrimidin-2-yl)amino]benzamide] | –
12 | < 100 nM | < 500 nM | Cc1cc(Nc2ncc3c(n2)CN(c2cnc4c(c2C)NCCO4)CC3)ccc1NC(=O)CN(C)C [Example 45, 2-(dimethylamino)-N-{2-methyl-4-[(7-{8-methyl-1H,2H,3H-pyrido[2,3-b][1,4]oxazin-7-yl}-5H,6H,7H,8H-pyrido[3,4-d]pyrimidin-2-yl)amino]phenyl}acetamide] | –
13 | < 100 nM | 500 to 1000 nM | CNCc1cccc(Nc2ncc3c(n2)CN(c2cnc4c(c2C)NCCO4)CC3)c1 [Example 46, 7-{8-methyl-1H,2H,3H-pyrido[2,3-b][1,4]oxazin-7-yl}-N-{3-[(methylamino)methyl]phenyl}-5H,6H,7H,8H-pyrido[3,4-d]pyrimidin-2-amine] | –
14 | < 100 nM | 500 to 1000 nM | Cc1c(N2CCc3cnc(Nc4ccc5c(c4)CN(C)C5)cc3C2)cnc2c1NCCO2 [Example 47, 6-{8-methyl-1H,2H,3H-pyrido[2,3-b][1,4]oxazin-7-yl}-N-(2-methyl-2,3-dihydro-1H-isoindol-5-yl)-5,6,7,8-tetrahydro-2,6-naphthyridin-3-amine] | –
15 | < 100 nM | < 500 nM | Cc1cc(Nc2ncc3c(n2)CN(c2cnc4c(c2C)NCCO4)CC3)ccc1NC(=O)CN1CCOCC1 [Example 48, N-{2-methyl-4-[(7-{8-methyl-1H,2H,3H-pyrido[2,3-b][1,4]oxazin-7-yl}-5H,6H,7H,8H-pyrido[3,4-d]pyrimidin-2-yl)amino]phenyl}-2-(morpholin-4-yl)acetamide] | –
16 | < 100 nM | 500 to 1000 nM | Cc1c(N2CCc3cnc(Nc4ccnc(CS(C)(=O)=O)c4)nc3C2)cnc2c1NCCO2 [Example 49, 7-(8-methyl-2,3-dihydro-1H-pyrido[2,3-b][1,4]oxazin-7-yl)-N-(2-((methylsulfonyl)methyl)pyridin-4-yl)-5,6,7,8-tetrahydropyrido[3,4-d]pyrimidin-2-amine] | –
17 | < 100 nM | < 500 nM | Cc1c(N2CCc3cnc(Nc4cccc(CS(C)(=O)=O)c4)nc3C2)cnc2c1NCCO2 [Example 50, 7-(8-methyl-2,3-dihydro-1H-pyrido[2,3-b][1,4]oxazin-7-yl)-N-(3-((methylsulfonyl)methyl)phenyl)-5,6,7,8-tetrahydropyrido[3,4-d]pyrimidin-2-amine] | –
18 | < 100 nM | 500 to 1000 nM | Cc1c(N2CCc3cnc(Nc4ccc(CS(C)(=O)=O)nc4)cc3C2)cnc2c1NCCO2 [Example 51, 6-(8-methyl-2,3-dihydro-1H-pyrido[2,3-b][1,4]oxazin-7-yl)-N-(6-((methylsulfonyl)methyl)pyridin-3-yl)-5,6,7,8-tetrahydro-2,6-naphthyridin-3-amine] | –
19 | < 100 nM | 500 to 1000 nM | CNCc1ccc(Nc2ncc3c(n2)CN(c2cnc4c(c2C)NCCO4)CC3)cc1 [Example 53, 7-(8-methyl-2,3-dihydro-1H-pyrido[2,3-b][1,4]oxazin-7-yl)-N-(4-((methylamino)methyl)phenyl)-5,6,7,8-tetrahydropyrido[3,4-d]pyrimidin-2-amine] | –
20 | < 100 nM | < 500 nM | Cc1c(N2CCc3cnc(Nc4ccc(CS(C)(=O)=O)cc4)cc3C2)cnc2c1NCCO2 [Example 57, N-[4-(methanesulfonylmethyl)phenyl]-6-{8-methyl-1H,2H,3H-pyrido[2,3-b][1,4]oxazin-7-yl}-5,6,7,8-tetrahydro-2,6-naphthyridin-3-amine] | –

— patent US20240025922A1, “TETRAHYDROPYRIDO[3,4-d]PYRIMIDINES AS HPK1 INHIBITORS” (Merck Patent GmbH, priority 2022, published 2024)
